Patent US4005213A, “2,5-Substituted-1,3,4-thiadiazoles as fungicides” (Schering Aktiengesellschaft, priority 1968, dated 1977)

Experiments:
Pythium ultimum [1] = assay: Limit concentration of soil-fungicidal effectiveness, Pythium ultimum infested soil, peas (Example 1); type: in vivo; settings: Globisporangium ultimum, 20 to 23 days, 22°-25° C., germination at least 90% vs steamed soil
Description: (§1) Limit concentrations of the soil-fungicidal effectiveness at homogeneous mixture of the products with the infested soil. Basic condition in the evaluation are a sound root formation without fungus necroses and germination of the seed of at least 90% compared with the result obtained in steamed soil. Per concentration there were seeded 25 grains of peas of the variety "Miracle of Kelvedon" (marrow pea) without a waiting period. the cultivation time in the tests was 20 to 23 days at a temperature of 22°-25° C. Four commercial products were included in the test series.
Pythium ultimum: Steamed compost soil was inoculated with mycelium of Pythium ultimum

Pythium ultimum [2] = assay: Pea test in soil inoculated with Pythium ultimum (Example 2); type: in vivo; design: key to Root evaluation (1-4): 4 = white roots, no necroses … 1 = severe necroses, roots rotted; settings: for Root evaluation (1-4): 3 weeks; for Number of sound peas after 3 wks.: 25 grains seeded
Description: Steamed compost soil was inoculated with mycelium of Pythium ultimum. […] The following table lists the number of germinated sound peas, the weight of the fresh plant, and a root evaluation after a cultivation period of 3 weeks at 22°-25° C.
4 = white roots, without fungus necroses
3 = white roots, slight fungus necroses
2 = brown roots, more intense fungus necroses
1 = severe fungus necroses, roots rotted

Rhizoctonia solani [3] = assay: Pea test in soil inoculated with Rhizoctonia solani (Example 3); type: in vivo; settings: 3 weeks
Source text: Steamed compost soil was inoculated with mycelium of Rhizoctonia solani. After homogeneous mixture of the products with the infested soil, the products were present in the form of 20% powder preparations, the seeding of 25 grains of marrow peas of the variety Miracle of Kelvedon per concentration was effected without waiting period in clay dishes holding 1 liter of soil. The table lists the number of germinated sound peas, the weight of the fresh plant, and a root evaluation after a cultivation period of 3 weeks at 22°-25° C.

Pythium ultimum [4] = assay: Fungistatic and fungicidal action on Pythium ultimum of preparations with varying active ingredient percentages (Example 4); type: in vivo; settings: for Number of sound peas after 3 wks.: 25 grains seeded
Source text: Comparison of the fungistatic and fungicidal action on Pythium ultimum when using preparations with varying active ingredient percentages on siliceous clay. Steamed compost soil was inoculated with mycelium of Pythium ultimum. After forming a homogeneous mixture of the products with the infested soil, […], the seeding of 25 grains of marrow peas of the variety Miracle of Kelvedon per concentration in clay dishes holding 1 liter of soil followed without a waiting period. In the table is stated the number of germinated sound peas, the weight of the fresh plant, and a root evaluation after a cultivation period of 3 weeks at 22°-25° C.

Damping-off Fungi = assay: Cotton seed disinfection in normal compost soil (Example 6); type: in vivo; settings: 100 mg active ingr. per kg of seed, 15 days, 22°-25° C.
Description: Cotton seeds disinfected with 10% formulations were seeded in normal compost soil (Damping-off Fungi), 25 grains per concentration. After a cultivation time of 15 days at 22°-25° C., the number of germinated sound cotton seedlings and their weight as fresh plants were determined.

Aspergillus niger = assay: Agar test, Aspergillus niger (Example 7); type: cell-based; settings: 10 ppm in malt extract agar, 5 days at 22° C.; control 100
Description: (§2) The fungicidal action of the agents according to the invention was tested in artificial nutrient media against plant-pathogenic fungi in Petri dishes (agar test). The procedure was to sterilize the medium consisting of 2% malt extract and 1.5% agar-agar powder. Before the solidification of the medium, the active substances were added to it, mixing thoroughly, so that the medium received 10 parts of active substance per million (ppm). After the solidification of the medium, the latter was inoculated with a platinum dropper which contained 100 spores each of the fungi to be tested, and after 5 days at 22° C., an evaluation was made by measuring the diameter of the colonies in mm.

Stemphylium ilicis = assay: Agar test, Stemphylium ilicis (Example 7); type: cell-based; settings: 10 ppm in malt extract agar, 5 days at 22° C.; control 100
Description: as §2

Meloidogyne incognita = assay: Nematocidal action against root gall nematodes, cucumber (Example 8); type: in vivo; settings: reduction of attack, 30 days
Description: The products as 20% powder preparations were homogeneously admixed with a compost soil heavily infested by root gall nematodes. Without a waiting period, 20 cucumber seeds per concentration were seeded. After a cultivation time of 30 days at a temperature of 23°-25° C., the nematocidal action was evaluated by counting the root galls formed in the waterbath. The following table states the reduction of attack in percent. In the control, an average of 90 root galls per seedling had formed.

Pyrenochaeta lycopersici = assay: Control of Pyrenochaeta lycopersici, corky root disease of the tomato, open field (Example 9); type: in vivo; settings: for Weight of single tomato (% of untreated): 0 g = 100%; for Tomatoes per plant / Weight of single tomato / Yield per plant: 10% granulate
Source text: Control of Pyrenochaeta lycopersici, corky root disease of the tomato.
On a naturally infested open field area, 2-dichloromethyl-5-methylsulfonyl-1,3,4-thiadiazole was scattered as a 10% granulate formulation and hoed in 20 cm deep. […] After a reaction period of 3 weeks, tomato plants of the variety "Ronald-M" which were 8 weeks old were set out at a distance from each other of 50 × 70 cm. The harvest results indicated in the table are average values of 40 plants per lot and refer to harvested ripe tomatoes.

[5] = acute oral toxicity in rats; settings: rat, in vivo
Rhizoctonia solani [6] = assay: Limit concentration of soil-fungicidal effectiveness, Rhizoctonia solani infested soil, peas (Example 1); type: in vivo; settings: 20 to 23 days, 22°-25° C., germination at least 90% vs steamed soil
Description: as §1
Rhizoctonia solani: Steamed compost soil was inoculated with mycelium of Rhizoctoniz solani.

Botrytis cinerea = assay: Agar test, Botrytis cinerea (Example 7); type: cell-based; settings: 10 ppm in malt extract agar, 5 days at 22° C.; control 100
Description: as §2

[7] = test system: Colletotrichum gloeosporioides; assay: Agar test, Colletotrichum gloeosporioides (Example 7); type: cell-based; settings: 10 ppm in malt extract agar, 5 days at 22° C.; control 100
Description: as §2

Helminthosporium sativum = assay: Agar test, Helminthosporium sativum (Example 7); type: cell-based; settings: 10 ppm in malt extract agar, 5 days at 22° C.; control 100
Description: as §2

[8] = 10 mg active ingr. per liter of soil
[9] = 20 mg active ingr. per liter of soil
[10] = 30 mg active ingr. per liter of soil
[11] = 5% formulation, 6 mg active ingr. per liter of soil
[12] = 5% formulation, 10 mg active ingr. per liter of soil
[13] = 10% formulation, 10 mg active ingr. per liter of soil
[14] = 20% formulation, 6 mg active ingr. per liter of soil
[15] = 10 g active ingr. per square meter
[16] = 20 g active ingr. per square meter
[17] = 200 mg active ingr. per liter of soil

## CS(=O)(=O)c1nnc(C(Cl)Cl)s1 [Compound 17, 2-dichloromethyl-5-methylsulfonyl-1,3,4-thiadiazole]
Pythium ultimum [1]
  minimal effective concentration: 10 µg/mL
Pythium ultimum [2]; [8]
  Root evaluation (1-4): 4
Pythium ultimum [2]; [9]
  Root evaluation (1-4): 4
  Number of sound peas after 3 wks.: 24
Pythium ultimum [2]; [10]
  Root evaluation (1-4): 4
  Number of sound peas after 3 wks.: 24
Rhizoctonia solani [3]; [9]
  Root evaluation (1-4): 4
Rhizoctonia solani [3]; [10]
  Root evaluation (1-4): 4
Pythium ultimum [4]; [11]
  Weight of fresh plant: 9 g
  Number of sound peas after 3 wks.: 12
Pythium ultimum [4]; [12]
  Weight of fresh plant: 20 g
  Number of sound peas after 3 wks.: 24
Pythium ultimum [4]; 10% formulation, 6 mg active ingr. per liter of soil
  Weight of fresh plant: 15 g
Pythium ultimum [4]; [13]
  Weight of fresh plant: 24 g
  Number of sound peas after 3 wks.: 22
Pythium ultimum [4]; [14]
  Weight of fresh plant: 17 g
  Number of sound peas after 3 wks.: 22
Pythium ultimum [4]; 20% formulation, 10 mg active ingr. per liter of soil
  Weight of fresh plant: 16 g
Damping-off Fungi
  Sound plants in %: 100%
Aspergillus niger
  diameter of the colonies, Aspergillus niger: 0 mm
Stemphylium ilicis
  diameter of the colonies, Stemphylium ilicis: 0 mm
Meloidogyne incognita; 40 mg active substance per liter of soil
  Nematocidal action in % (Meloidogyne incognita): 90%
Meloidogyne incognita; 60 mg active substance per liter of soil
  Nematocidal action in % (Meloidogyne incognita): 94%
Pyrenochaeta lycopersici; [15]
  Weight of single tomato (% of untreated): 110%
  Tomatoes per plant: 27
  Weight of single tomato: 66 g
  Yield per plant: 1774 g
Pyrenochaeta lycopersici; [16]
  Weight of single tomato (% of untreated): 130%
  Tomatoes per plant: 28
  Weight of single tomato: 78 g
  Yield per plant: 2209 g

## CS(=O)(=O)c1nnc(C(Cl)(Cl)Cl)s1 [Compound 21, 2-trichloromethyl-5-methylsulfonyl-1,3,4-thiadiazole]
Pythium ultimum [1]
  minimal effective concentration: 40 µg/mL
Rhizoctonia solani [3]; [8]
  Root evaluation (1-4): 4
Rhizoctonia solani [3]; [9]
  Root evaluation (1-4): 4
Rhizoctonia solani [3]; [10]
  Root evaluation (1-4): 4
Damping-off Fungi
  Sound plants in %: 100%
Aspergillus niger
  diameter of the colonies, Aspergillus niger: 0 mm
Stemphylium ilicis
  diameter of the colonies, Stemphylium ilicis: 0 mm
[5]
  LD50: 717 mg/kg

## CS(=O)(=O)c1nnc(C(F)(F)Cl)s1 [Compound 54, 2-chlorodifluoromethyl-5-methylsulfonyl-1,3,4-thiadiazole]
Pythium ultimum [1]
  minimal effective concentration: 10 µg/mL
Rhizoctonia solani [6]
  minimal effective concentration: 20 µg/mL

## C[S+]([O-])c1nnc(C(F)(F)Cl)s1 (centres unmarked) [Compound 55, 2-chlorodifluoromethyl-5-methylsulfinyl-1,3,4-thiadiazole]
Pythium ultimum [1]
  minimal effective concentration: 10 µg/mL
Rhizoctonia solani [6]
  minimal effective concentration: 10 µg/mL

## S=C([S-])NCCNC(=S)[S-].[Zn+2] [Zinc ethylene-bis-dithiocarbamate, reference compound]
Pythium ultimum [2]; [17]
  Root evaluation (1-4): 1
  Number of sound peas after 3 wks.: 14
Aspergillus niger
  diameter of the colonies, Aspergillus niger: 78 mm
Botrytis cinerea
  diameter of the colonies, Botrytis cinerea: 36 mm
[7]
  diameter of the colonies, Colletotrichum gloeosporioides: 81 mm
Helminthosporium sativum
  diameter of the colonies, Helminthosporium sativum: 50 mm
Stemphylium ilicis
  diameter of the colonies, Stemphylium ilicis: 55 mm
